{
  "source": "patent US8383651B2",
  "about": "“Compounds which selectively modulate the CB2 receptor” (Boehringer Ingelheim International GmbH, priority 2009, dated 2013)",
  "key": {"human CB1R": {"molecular_target": "T1, human CB1R (Homo sapiens, UniProt P21554)", "T1 construct": "host or cells: CHO cells", "T1 sequence (P21554 whole entry)": "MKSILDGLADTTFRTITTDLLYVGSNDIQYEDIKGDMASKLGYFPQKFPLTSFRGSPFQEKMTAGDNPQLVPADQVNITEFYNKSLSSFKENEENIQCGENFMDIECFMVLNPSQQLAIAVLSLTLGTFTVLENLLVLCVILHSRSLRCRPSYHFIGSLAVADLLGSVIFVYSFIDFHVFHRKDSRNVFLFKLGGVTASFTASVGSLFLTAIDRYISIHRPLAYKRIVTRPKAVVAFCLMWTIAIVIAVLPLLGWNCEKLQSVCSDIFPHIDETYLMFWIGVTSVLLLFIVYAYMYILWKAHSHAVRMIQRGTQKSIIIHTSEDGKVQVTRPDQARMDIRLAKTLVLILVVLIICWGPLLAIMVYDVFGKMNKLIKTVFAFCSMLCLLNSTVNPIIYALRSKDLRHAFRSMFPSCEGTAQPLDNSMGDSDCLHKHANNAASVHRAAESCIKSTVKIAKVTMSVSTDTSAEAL", "experiment": "CB1R mediated modulation of cAMP synthesis", "assay_type": "cell-based", "details": "inhibition of forskolin-stimulated cAMP synthesis", "method": "C. CB1R Mediated Modulation of cAMP Synthesis:\nCompounds of the invention are evaluated for their CB1 agonist or inverse agonistic activity in accordance with the following experimental method.\n(§1) CHO cells expressing human CB1R (Euroscreen) are plated at a density of 5000 cells per well in 384 well plates and incubated overnight at 37° C. After removing the media, the cells are treated with test compounds diluted in stimulation buffer containing 1 mM IBMX, 0.25% BSA and 10 uM Forskolin. The assay is incubated for 30 minutes at 37° C. Cells are lysed and the cAMP concentration is measured using DiscoverX-XS cAMP kit, following the manufacturer's protocol. In this setting, agonists will decrease forskolin induced production of cAMP while inverse agonists will further increase forskolin induced production of cAMP. EC50 of agonists are calculated as follows. The maximal amount of cAMP produced by forskolin compared to the level of cAMP inhibited by 1 uM CP55940 is defined as 100%. The EC50 value of each test compound is determined as the concentration at which 50% of the forskolin-stimulated cAMP synthesis is inhibited. Data is analyzed using a four-parameter logistic model. (Model 205 of XLfit 4.0)."}, "human CB2R": {"molecular_target": "T2, human CB2R (Homo sapiens, UniProt P34972)", "T2 construct": "host or cells: CHO cells", "T2 sequence (P34972 whole entry)": "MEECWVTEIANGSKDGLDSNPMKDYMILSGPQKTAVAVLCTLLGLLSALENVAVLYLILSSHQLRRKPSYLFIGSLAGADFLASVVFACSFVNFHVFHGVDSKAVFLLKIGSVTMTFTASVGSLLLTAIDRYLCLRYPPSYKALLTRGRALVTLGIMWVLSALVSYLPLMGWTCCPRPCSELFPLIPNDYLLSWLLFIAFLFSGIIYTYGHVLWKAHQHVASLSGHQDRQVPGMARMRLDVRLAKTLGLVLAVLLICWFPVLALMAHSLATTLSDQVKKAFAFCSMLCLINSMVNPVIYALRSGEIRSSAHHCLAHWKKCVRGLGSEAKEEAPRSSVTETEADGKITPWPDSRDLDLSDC", "experiment": "CB2R mediated modulation of cAMP synthesis", "assay_type": "cell-based", "method": "B. CB2R Mediated Modulation of Camp Synthesis:\nCompounds of the invention are evaluated for their CB2 agonist or inverse agonistic activity in accordance with the following experimental method.\nas §1, with “CB2R” for “CB1R”"}, "[1]": {"details": "CB1 EC50, CHO cells expressing human CB1R"}, "[2]": {"details": "CHO cells expressing human CB1R, read-out: CB1 EC50"}, "[3]": {"details": "CHO cells expressing human CB2R, inhibition of forskolin-stimulated cAMP synthesis, read-out: CB2 EC50"}},
  "note": "pEC50: −log10 of the molar value. Like-named read-outs stand apart in the source and are kept apart here.",
  "data": [
    {"smiles": "Cc1ncc(C2(c3cc(NC(=O)C(C)(C)S(=O)(=O)C4CCOCC4)on3)CCCC2)o1", "note": "[drawing 84]", "values": [
      {"measurement": "pEC50", "setting": "human CB1R; [1]", "result": 4.52},
      {"measurement": "pEC50", "setting": "human CB2R", "result": 8.34}
    ]},
    {"smiles": "CC(C)(C(=O)Nc1nc(-c2ncco2)n[nH]1)S(=O)(=O)C1CCOCC1", "values": [
      {"measurement": "pEC50", "setting": "human CB1R; [1]", "result": "< 4.30"},
      {"measurement": "pEC50", "setting": "human CB2R", "result": 7.08}
    ]},
    {"smiles": "Cc1cc(-c2nnc(NC(=O)C(C)(C)S(=O)(=O)CCC3CCOCC3)[nH]2)on1", "values": [
      {"measurement": "pEC50", "setting": "human CB1R; [2]", "result": "< 4.30"},
      {"measurement": "pEC50", "setting": "human CB2R; [3]", "result": 6.85}
    ]},
    {"smiles": "Cc1cc(-c2nnc(NC(=O)C(C)(C)S(=O)(=O)CCCC(F)(F)F)[nH]2)no1", "values": [
      {"measurement": "pEC50", "setting": "human CB1R; [2]", "result": "< 4.30"},
      {"measurement": "pEC50", "setting": "human CB2R; [3]", "result": 6.57}
    ]},
    {"smiles": "Cc1cc(-c2nnc(NC(=O)C(C)(C)S(=O)(=O)C3CCCCC3)[nH]2)on1", "values": [
      {"measurement": "pEC50", "setting": "human CB1R; [1]", "result": "< 4.70"},
      {"measurement": "pEC50", "setting": "human CB2R", "result": 7.26}
    ]},
    {"smiles": "Cc1cc(-c2n[nH]c(NC(=O)C(C)(C)S(=O)(=O)C3CCOCC3)n2)n(C)n1", "values": [
      {"measurement": "pEC50", "setting": "human CB1R; [2]", "result": "< 4.30"},
      {"measurement": "pEC50", "setting": "human CB2R; [3]", "result": 6.31}
    ]},
    {"smiles": "Cc1nnc(C(C)(C)c2cc(NC(=O)C(C)(C)S(=O)(=O)c3ccc(F)cc3)on2)o1", "values": [
      {"measurement": "pEC50", "setting": "human CB1R; [1]", "result": "< 4.30"},
      {"measurement": "pEC50", "setting": "human CB2R", "result": 7.01}
    ]},
    {"smiles": "CC(C)CCS(=O)(=O)C(C)(C)C(=O)Nc1nnc(-c2ncco2)[nH]1", "values": [
      {"measurement": "pEC50", "setting": "human CB1R; [2]", "result": "< 4.30"},
      {"measurement": "pEC50", "setting": "human CB2R; [3]", "result": 6.76}
    ]},
    {"smiles": "Cc1cc(-c2n[nH]c(NC(=O)C(C)(C)S(=O)(=O)C3CCOCC3)n2)no1", "values": [
      {"measurement": "pEC50", "setting": "human CB1R; [2]", "result": "< 4.30"},
      {"measurement": "pEC50", "setting": "human CB2R; [3]", "result": 6.57}
    ]},
    {"smiles": "Cc1ncc(C(C)(C)c2cc(NC(=O)C(C)(C)S(=O)(=O)C3CCOCC3)on2)s1", "values": [
      {"measurement": "pEC50", "setting": "human CB1R; [1]", "result": "< 4.30"},
      {"measurement": "pEC50", "setting": "human CB2R", "result": 8.47}
    ]},
    {"smiles": "Cc1ncc(C(C)(C)c2cc(NC(=O)C(C)(C)S(=O)(=O)C3CCOCC3)on2)o1", "values": [
      {"measurement": "pEC50", "setting": "human CB1R; [1]", "result": "< 3.70"},
      {"measurement": "pEC50", "setting": "human CB2R", "result": 8.17}
    ]},
    {"smiles": "CCc1ncc(C(C)(C)c2cc(NC(=O)C(C)(C)S(=O)(=O)C3CCN(S(C)(=O)=O)CC3)on2)o1", "values": [
      {"measurement": "pEC50", "setting": "human CB1R; [1]", "result": 4.58},
      {"measurement": "pEC50", "setting": "human CB2R", "result": 7.60}
    ]},
    {"smiles": "Cc1cc(-c2nnc(NC(=O)C(C)(C)S(=O)(=O)CCC(C)C)[nH]2)on1", "values": [
      {"measurement": "pEC50", "setting": "human CB1R; [2]", "result": "< 4.30"},
      {"measurement": "pEC50", "setting": "human CB2R; [3]", "result": 6.85}
    ]},
    {"smiles": "Cc1nnc(C(C)(C)c2cc(NC(=O)C(C)(C)S(=O)(=O)CCCC(F)(F)F)on2)o1", "values": [
      {"measurement": "pEC50", "setting": "human CB1R; [1]", "result": 4.64},
      {"measurement": "pEC50", "setting": "human CB2R", "result": 7.74}
    ]},
    {"smiles": "Cc1nnc(C(C)(C)c2cc(NC(=O)C(C)(C)S(=O)(=O)C3CCN(S(C)(=O)=O)CC3)on2)o1", "values": [
      {"measurement": "pEC50", "setting": "human CB1R; [2]", "result": "< 4.30"},
      {"measurement": "pEC50", "setting": "human CB2R; [3]", "result": 6.79}
    ]},
    {"smiles": "CC(C)(C(=O)Nc1nnc(-c2nccs2)[nH]1)S(=O)(=O)C1CCOCC1", "values": [
      {"measurement": "pEC50", "setting": "human CB1R; [2]", "result": "< 4.30"},
      {"measurement": "pEC50", "setting": "human CB2R; [3]", "result": 6.52}
    ]},
    {"smiles": "Cc1ncc(C2(c3cc(NC(=O)C(C)(C)S(=O)(=O)C4CCOCC4)on3)CCCC2)o1", "note": "[drawing 89]", "values": [
      {"measurement": "pEC50", "setting": "human CB1R; [1]", "result": 4.52}
    ]},
    {"smiles": "Cc1ncc(C(C)(C)c2cc(NC(=O)C(C)(C)S(=O)(=O)C3CCN(S(C)(=O)=O)CC3)on2)s1", "values": [
      {"measurement": "pEC50", "setting": "human CB1R; [1]", "result": 4.60},
      {"measurement": "pEC50", "setting": "human CB2R", "result": 7.55}
    ]},
    {"smiles": "Cc1cc(-c2nnc(NC(=O)C(C)(C)S(=O)(=O)CCC(C)C)[nH]2)no1", "values": [
      {"measurement": "pEC50", "setting": "human CB1R; [1]", "result": "< 4.30"},
      {"measurement": "pEC50", "setting": "human CB2R", "result": 7.43}
    ]},
    {"smiles": "CC(C)(c1cc(NC(=O)C(C)(C)S(=O)(=O)C2CCOCC2)on1)c1cnc(-c2ccccc2)o1", "values": [
      {"measurement": "pEC50", "setting": "human CB1R; [1]", "result": "< 4.30"},
      {"measurement": "pEC50", "setting": "human CB2R", "result": 7.68}
    ]}
  ]
}
